The source of these data is patent US20130012432A1, “Peptides for Treatment of Obesity” (Novo Nordisk A/S, priority 2010, published 2013).

The data set in a line: physchem. The method, then:
From a stock solution in vehicle, either H2O or 10 mM phosphate, containing 1 mg (as weighed) compound per ml, 8-11 aliquots are withdrawn and pH-adjusted individually with HCl/NaOH, to cover the whole pH range.

Molecules are shown by their SMILES. Values after ≈ are worked out from the molar mass of the structure shown. Positions of bridges follow the written chain, without caps; N, C: chain ends. Non-standard residues stand in square brackets, D forms with d. Residues, ends and D or L forms follow the SMILES beside them. Groups on a side chain read outwards from the residue. *: point of attachment. Palmitoyl(16-(5-tetrazolyl)) = O=C(CCCCCCCCCCCCCCCc1nnn[nH]1)*; Lys(CH2CO2H)2 = N[C@@H](CCCCN(CC(=O)O)CC(=O)O)C(=O)O; C18 diacid = O=C(O)CCCCCCCCCCCCCCCCC(=O)*; hCys = N[C@@H](CCS)C(=O)O; Orn = NCCC[C@H](N)C(=O)O; Dab = NCC[C@H](N)C(=O)O; Dap = NC[C@H](N)C(=O)O; AEEA = NCCOCCOCC(=O)O

Broadly, the solubility is how much of the substance goes into solution per volume. Regarding `CC(=O)N[C@H]1CCCNC(=O)C[C@@H](C(=O)N2CCC[C@H]2C(=O)N2CCC[C@H]2C(=O)N[C@@H](Cc2c[nH]cn2)C(=O)N[C@@H](CCC(=O)O)C(=O)N[C@@H](CCCCN(CC(=O)O)CC(=O)O)C(=O)N[C@@H](CCCCNC(=O)COCCOCCNC(=O)CCCCCCCCCCCCCCCCC(=O)O)C(N)=O)NC(=O)[C@H](Cc2c[nH]c3ccccc23)NC(=O)[C@H](CCCNC(=N)N)NC(=O)[C@@H](Cc2ccccc2)NC(=O)[C@H](Cc2c[nH]cn2)NC1=O` [Example 46, Ac-c[Orn-His-D-Phe-Arg-Trp-Asp]-Pro-Pro-His-Glu-Lys(biscarboxymethyl)-Lys({2-[2-(17-carboxyheptadecanoylamino)ethoxy]ethoxy}acetyl)-NH2] (Ac-[Orn]H[dF]RWDPPHE[Lys(CH2CO2H)2]K([AEEA-C18 diacid])-NH2; lactam 1-6), the solubility came to 25 µM (≈ 54.3 µg/mL) (pH 5, Solubility Conc.); 24 µM (≈ 52.1 µg/mL) (pH 5.4, Solubility Conc.); 47 µM (≈ 102 µg/mL) (pH 6.1, Solubility Conc.); 160 µM (≈ 347 µg/mL) (pH 6.6, Solubility Conc.); 422 µM (≈ 916 µg/mL) (pH 6.7, Solubility Conc.); 471 µM (≈ 1020 µg/mL) (pH 6.8, Solubility Conc.). Further, the solubility was 494 µM (≈ 1070 µg/mL) (pH 7.1, Solubility Conc.); 509 µM (≈ 1110 µg/mL) (pH 7.6, Solubility Conc.); 507 µM (≈ 1100 µg/mL) (pH 7.8, Solubility Conc.).

As for `CC(=O)N[C@H]1CNC(=O)CC[C@@H](C(=O)N2CCC[C@H]2C(=O)N2CCC[C@H]2C(=O)N[C@@H](CCCNC(=N)N)C(=O)N[C@@H](CC(=O)O)C(=O)N[C@@H](CCCCN(CC(=O)O)CC(=O)O)C(=O)N[C@@H](CCCCNC(=O)COCCOCCNC(=O)CCCCCCCCCCCCCCCc2nnn[nH]2)C(N)=O)NC(=O)[C@H](Cc2c[nH]c3ccccc23)NC(=O)[C@H](CCCNC(=N)N)NC(=O)[C@@H](Cc2ccccc2)NC(=O)[C@H](Cc2c[nH]cn2)NC1=O` [Example 47, Ac-c[Dap-His-D-Phe-Arg-Trp-Glu]-Pro-Pro-Arg-Asp-Lys(biscarboxymethyl)-Lys[(2-{2-[16-(tetrazol-5-yl)hexadecanoylamino]ethoxy}ethoxy)acetyl]-NH2] (Ac-[Dap]H[dF]RWEPPRD[Lys(CH2CO2H)2]K([AEEA-Palmitoyl(16-(5-tetrazolyl))])-NH2; lactam 1-6), the solubility runs as follows: (pH 6.4, Solubility Conc.) 24 µM (≈ 52.1 µg/mL); (pH 6.9, Solubility Conc.) 56 µM (≈ 122 µg/mL); (pH 7.1, Solubility Conc.) 103 µM (≈ 224 µg/mL); (pH 7.2, Solubility Conc.) 219 µM (≈ 476 µg/mL); (pH 7.3, Solubility Conc.) 366 µM (≈ 795 µg/mL); (pH 7.5, Solubility Conc.) 379 µM (≈ 823 µg/mL). Besides, the concentration in solution (pH 7.6, Solubility Conc.) (solubility) was 371 µM (≈ 806 µg/mL) and the solubility (pH 7.9, Solubility Conc.) came to 493 µM (≈ 1070 µg/mL).

Regarding `CC(=O)N[C@H]1CCCNC(=O)CC[C@@H](C(=O)N2CCC[C@H]2C(=O)N2CCC[C@H]2C(=O)N[C@@H](CCCNC(=N)N)C(=O)N[C@@H](CC(=O)O)C(=O)N[C@@H](CCCCN(CC(=O)O)CC(=O)O)C(=O)N[C@@H](CCCCNC(=O)COCCOCCNC(=O)CCCCCCCCCCCCCCCc2nnn[nH]2)C(N)=O)NC(=O)[C@H](Cc2c[nH]c3ccccc23)NC(=O)[C@H](CCCNC(=N)N)NC(=O)[C@@H](Cc2ccccc2)NC(=O)[C@H](Cc2c[nH]cn2)NC1=O` [Example 8, Ac-c[Orn-His-D-Phe-Arg-Trp-Glu]-Pro-Pro-Arg-Asp-Lys(biscarboxymethyl)-Lys[(2-{2-[16-(tetrazol-5-yl)hexadecanoylamino]ethoxy}ethoxy)acetyl]-NH2] (Ac-[Orn]H[dF]RWEPPRD[Lys(CH2CO2H)2]K([AEEA-Palmitoyl(16-(5-tetrazolyl))])-NH2; lactam 1-6), the solubility is 35 µM (≈ 77 µg/mL) (pH 6.5, Solubility Conc.); 44 µM (≈ 96.8 µg/mL) (pH 6.8, Solubility Conc.); 91 µM (≈ 200 µg/mL) (pH 7, Solubility Conc.); 268 µM (≈ 590 µg/mL) (pH 7.2, Solubility Conc.); 482 µM (≈ 1060 µg/mL) (pH 7.3, Solubility Conc.); 551 µM (≈ 1210 µg/mL) (pH 7.4, Solubility Conc.). In addition, the solubility runs as follows: (pH 7.5, Solubility Conc.) 538 µM (≈ 1180 µg/mL); (pH 7.6, Solubility Conc.) 582 µM (≈ 1280 µg/mL); (pH 7.8, Solubility Conc.) 556 µM (≈ 1220 µg/mL).

In the case of `CC(=O)N[C@H]1CCCNC(=O)C[C@@H](C(=O)N2CCC[C@H]2C(=O)N2CCC[C@H]2C(=O)N[C@@H](CCCNC(=N)N)C(=O)N[C@@H](CC(=O)O)C(=O)N[C@@H](CCCCN(CC(=O)O)CC(=O)O)C(=O)N[C@@H](CCCCNC(=O)COCCOCCNC(=O)CCCCCCCCCCCCCCCc2nnn[nH]2)C(N)=O)NC(=O)[C@H](Cc2c[nH]c3ccccc23)NC(=O)[C@H](CCCNC(=N)N)NC(=O)[C@@H](Cc2ccccc2)NC(=O)[C@H](Cc2c[nH]cn2)NC1=O` [Example 17, Ac-c[Orn-His-D-Phe-Arg-Trp-Asp]-Pro-Pro-Arg-Asp-Lys(biscarboxymethyl)-Lys[(2-{2-[16-(tetrazol-5-yl)hexadecanoylamino]ethoxy}ethoxy)acetyl]-NH2] (Ac-[Orn]H[dF]RWDPPRD[Lys(CH2CO2H)2]K([AEEA-Palmitoyl(16-(5-tetrazolyl))])-NH2; lactam 1-6), the solubility by setting is: (pH 5.8, Solubility Conc.) 25 µM (≈ 54.7 µg/mL); (pH 6.7, Solubility Conc.) 45 µM (≈ 98.4 µg/mL); (pH 6.9, Solubility Conc.) 75 µM (≈ 164 µg/mL); (pH 7.2, Solubility Conc.) 297 µM (≈ 649 µg/mL); (pH 7.3, Solubility Conc.) 428 µM (≈ 936 µg/mL); (pH 7.4, Solubility Conc.) 490 µM (≈ 1070 µg/mL). The compound also registered a solubility (pH 7.8, Solubility Conc.) of 470 µM (≈ 1030 µg/mL) and a solubility (pH 8, Solubility Conc.) of 487 µM (≈ 1060 µg/mL).

The compound `CC(=O)N[C@H]1CCSSC[C@@H](C(=O)N2CCC[C@H]2C(=O)N2CCC[C@H]2C(=O)N[C@@H](CCCCN)C(=O)N[C@@H](CCC(=O)O)C(=O)N[C@@H](CCCCN(CC(=O)O)CC(=O)O)C(=O)N[C@@H](CCCCNC(=O)COCCOCCNC(=O)CCCCCCCCCCCCCCCc2nnn[nH]2)C(N)=O)NC(=O)[C@H](Cc2c[nH]c3ccccc23)NC(=O)[C@H](CCCNC(=N)N)NC(=O)[C@@H](Cc2ccccc2)NC(=O)[C@H](CO)NC1=O` [Example 58, Ac-c[homoCys-Ser-D-Phe-Arg-Trp-Cys]-Pro-Pro-Lys-Glu-Lys(biscarboxymethyl)-Lys[(2-{2-[16-(tetrazol-5-yl)hexadecanoylamino]ethoxy}ethoxy)acetyl]-NH2] (Ac-[hCys]S[dF]RWCPPKE[Lys(CH2CO2H)2]K([AEEA-Palmitoyl(16-(5-tetrazolyl))])-NH2; disulfide 1-6) had a solubility (pH 3, Solubility Conc.) of 539 µM (≈ 1150 µg/mL); a solubility (pH 3.9, Solubility Conc.) of 56 µM (≈ 119 µg/mL); a solubility (pH 5.9, Solubility Conc.) of 8 µM (≈ 17 µg/mL); a solubility (pH 6.2, Solubility Conc.) of 21 µM (≈ 44.7 µg/mL); a solubility (pH 6.5, Solubility Conc.) of 37 µM (≈ 78.8 µg/mL); a solubility (pH 6.6, Solubility Conc.) of 30 µM (≈ 63.9 µg/mL). For the same compound, the solubility reads like this: (pH 7.5, Solubility Conc.) 80 µM (≈ 170 µg/mL); (pH 7.6, Solubility Conc.) 385 µM (≈ 820 µg/mL); (pH 8.6, Solubility Conc.) 250 µM (≈ 532 µg/mL); (pH 9, Solubility Conc.) 365 µM (≈ 777 µg/mL).

For the compound `CC(=O)N[C@H]1CC(=O)NCC[C@@H](C(=O)N2CCC[C@H]2C(=O)N2CCC[C@H]2C(=O)N[C@@H](CCCNC(=N)N)C(=O)N[C@@H](CC(=O)O)C(=O)N[C@@H](CCCCN(CC(=O)O)CC(=O)O)C(=O)N[C@@H](CCCCNC(=O)COCCOCCNC(=O)CCCCCCCCCCCCCCCc2nnn[nH]2)C(N)=O)NC(=O)[C@H](Cc2c[nH]c3ccccc23)NC(=O)[C@H](CCCNC(=N)N)NC(=O)[C@@H](Cc2ccccc2)NC(=O)[C@H](Cc2c[nH]cn2)NC1=O` [Example 30, Ac-c[Asp-His-D-Phe-Arg-Trp-Dab]-Pro-Pro-Arg-Asp-Lys(biscarboxymethyl)-Lys[(2-{2-[16-(tetrazol-5-yl)hexadecanoylamino]ethoxy}ethoxy)acetyl]-NH2] (Ac-DH[dF]RW[Dab]PPRD[Lys(CH2CO2H)2]K([AEEA-Palmitoyl(16-(5-tetrazolyl))])-NH2; lactam 1-6), the solubility runs as follows: (pH 5.9, Solubility Conc.) 24 µM (≈ 52.1 µg/mL); (pH 6.4, Solubility Conc.) 37 µM (≈ 80.4 µg/mL); (pH 7, Solubility Conc.) 144 µM (≈ 313 µg/mL); (pH 7.3, Solubility Conc.) 377 µM (≈ 819 µg/mL); (pH 7.5, Solubility Conc.) 478 µM (≈ 1040 µg/mL); (pH 7.6, Solubility Conc.) 493 µM (≈ 1070 µg/mL). Also, the solubility (pH 7.9, Solubility Conc.) is 497 µM (≈ 1080 µg/mL).
